Experimental data reported in patent US20260217682A1, “STILBENE COMPOUND AND PREPARATION METHOD THEREFOR AND USE THEREOF” (THE HONG KONG UNIVERSITY OF SCIENCE AND TECHNOLOGY, priority 2022, published 2026).

Tested on: human HaCaT cells
Assay: Cytotoxicity assay (MTT colorimetric assay)
Format: cell-based
Details: 0.3-100 μM, 48 hours of treatment
Experimental: HaCaT cells were inoculated at a density of 5.0×10^3 cells/mL in a 96-well culture plate, with 100 μL per well. […] After 48 hours of treatment, 10 μL of MTT solution was added to each well, and the cells were incubated at 37° C. for an additional 4 hours. The culture was then terminated, the supernatant was discarded, and 150 μL of DMSO was added to each well. The plate was shaken for 10 minutes for full dissolution. The absorbance (OD) of each well was measured at 490 nm using an ELISA reader. The wells without drug treatment served as controls, and cell viability was calculated using the formula: Cell viability

Oc1ccc(C=Cc2cc(O)cc(O)c2)cc1 [resveratrol]
cytotoxicity (cell viability): neither compound RE-1 nor resveratrol exhibited significant cytotoxicity
